Results taken from patent US6355799B1, “Substituted benzene compounds, process for their preparation, and herbicidal and defoliant compositions containing them” (ISK Americas Incorporated, priority 1997, dated 2002).

Legend:
Assay type in all cases: in vivo
[1] = tested on: redroot pigweed (Amaranthus retroflexus, AMARE); test: Pre-emerge test, greenhouse herbicide activity screening; conditions: rated 14 days after application, 0 = no damage, 100 = complete death
Method in brief: (§1)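 Herbicidal damage is scored 0 (none) to 100 (complete plant death) two weeks after a simulated field spray. Rates span 15–1000 g ai/ha, delivered in acetone at 187 l/ha. For post-emergence treatments, plants have 2–3 leaves and the spray carries 0.25% v/v non-ionic surfactant.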

[2] = tested on: field corn (Zea mays L., var. Dekalb 535, CORN); test: Post-emerge test, crop safety; conditions: post-emerge, 14 days after application, rating scale 0-100
Method in brief: (§2)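 Plants grown in 10 cm pots of sandy loam mix received acetone-dissolved compounds through a moving flat-fan nozzle. Doses ranged from 15 to 1000 g ai/ha. Pre-emerge pots were seeded one day earlier, post-emerge pots 8–21 days earlier. Fourteen days on, each pot was graded 0–100 for damage.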

[3] = tested on: upland rice (Oryza sp., var. Tebonnet, RICE); test: Post-emerge test, crop safety; conditions: post-emerge, 14 days after application, rating scale 0-100
Method in brief: as §2

[4] = tested on: field corn (Zea mays L., var. Dekalb 535, CORN); test: Pre-emerge test, crop safety; conditions: rated 14 days after application, 0 = no damage, 100 = complete death
Method in brief: as §1

[5] = tested on: upland rice (Oryza sp., var. Tebonnet, RICE); test: Pre-emerge test, crop safety; conditions: rated 14 days after application, 0 = no damage, 100 = complete death
Method in brief: as §1

[6] = tested on: lambsquarters (Chenopodium album, CHEAL); test: Pre-emerge test, greenhouse herbicide activity screening; conditions: rated 14 days after application, 0 = no damage, 100 = complete death
Method in brief: (§3)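 Rating: 0–100 visual injury, 14 DAA. Application: acetone, 187 l/ha, 15–1000 g ai/ha, flat-fan track sprayer with nozzle 40–45 cm above soil or canopy. Post-emerge runs used 0.25% v/v surfactant on 2–3 leaf plants.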

[7] = tested on: common ragweed (Ambrosia artemisizfolia L., AMBEL); test: as above; conditions: rated 14 days after application, 0 = no damage, 100 = complete death
Method in brief: as §3

[8] = tested on: johnsongrass (Sorghum halepense, SORHA); test: as above; conditions: rated 14 days after application, 0 = no damage, 100 = complete death
Method in brief: as §3

[9] = tested on: velvetleaf (Abutilon theophrasti, ABUTH); test: as above; conditions: rated 14 days after application, 0 = no damage, 100 = complete death
Method in brief: as §3

[10] = tested on: ivyleaf morningglory (Ipomoea hederacea, IPOHE); test: as above; conditions: rated 14 days after application, 0 = no damage, 100 = complete death
Method in brief: as §3

[11] = tested on: green foxtail (Setaria viridis, SETVI); test: as above; conditions: rated 14 days after application, 0 = no damage, 100 = complete death
Method in brief: as §3

[12] = tested on: barnyardgrass (Echinochloa crus-galli, ECHCG); test: as above; conditions: rated 14 days after application, 0 = no damage, 100 = complete death
Method in brief: as §3

[13] = tested on: large crabgrass (Digitaria sanguinalis, DIGSA); test: as above; conditions: rated 14 days after application, 0 = no damage, 100 = complete death
Method in brief: as §3

[14] = tested on: sicklepod (Cassia obtusifolia, CASOB); test: as above; conditions: rated 14 days after application, 0 = no damage, 100 = complete death
Method in brief: as §3

[15] = tested on: lambsquarters (Chenopodium album, CHEAL); test: Post-emerge test, greenhouse herbicide activity screening; conditions: post-emerge, 14 days after application, rating scale 0-100
Method in brief: as §2

[16] = tested on: redroot pigweed (Amaranthus retroflexus, AMARE); test: as above; conditions: post-emerge, 14 days after application, rating scale 0-100
Method in brief: as §2

[17] = tested on: common ragweed (Ambrosia artemisizfolia L., AMBEL); test: as above; conditions: post-emerge, 14 days after application, rating scale 0-100
Method in brief: as §2

[18] = tested on: johnsongrass (Sorghum halepense, SORHA); test: as above; conditions: post-emerge, 14 days after application, rating scale 0-100
Method in brief: as §2

[19] = tested on: velvetleaf (Abutilon theophrasti, ABUTH); test: as above; conditions: post-emerge, 14 days after application, rating scale 0-100
Method in brief: as §2

[20] = tested on: ivyleaf morningglory (Ipomoea hederacea, IPOHE); test: as above; conditions: post-emerge, 14 days after application, rating scale 0-100
Method in brief: as §2

[21] = tested on: green foxtail (Setaria viridis, SETVI); test: as above; conditions: post-emerge, 14 days after application, rating scale 0-100
Method in brief: as §2

[22] = tested on: barnyardgrass (Echinochloa crus-galli, ECHCG); test: as above; conditions: post-emerge, 14 days after application, rating scale 0-100
Method in brief: as §2

[23] = tested on: large crabgrass (Digitaria sanguinalis, DIGSA); test: as above; conditions: post-emerge, 14 days after application, rating scale 0-100
Method in brief: as §2

[24] = tested on: sicklepod (Cassia obtusifolia, CASOB); test: as above; conditions: post-emerge, 14 days after application, rating scale 0-100
Method in brief: as §2

COc1c(Cl)cc(F)c(-n2c(=O)cc(C(F)(F)F)n(C)c2=O)c1NC(=O)c1ccc(CCl)cc1 [2-36]
0: Pre-emerge phytotoxicity rating (0-100), crop damage, CORN ([4]; 63 g ai/ha) | Pre-emerge phytotoxicity rating (0-100), crop damage, CORN ([4]; 250 g ai/ha) | Pre-emerge phytotoxicity rating (0-100), crop damage, RICE ([5]; 63 g ai/ha) | Pre-emerge Herbicidal Activity, phytotoxicity rating (0-100), AMBEL ([7]; 63 g ai/ha) | Pre-emerge Herbicidal Activity, phytotoxicity rating (0-100), SORHA ([8]; 63 g ai/ha) | Pre-emerge Herbicidal Activity, phytotoxicity rating (0-100), IPOHE ([10]; 63 g ai/ha) | Pre-emerge Herbicidal Activity, phytotoxicity rating (0-100), ECHCG ([12]; 63 g ai/ha) | Pre-emerge Herbicidal Activity, phytotoxicity rating (0-100), DIGSA ([13]; 63 g ai/ha) | phytotoxicity rating ECHCG ([22]; 250 g ai/ha)
30: Pre-emerge Herbicidal Activity, phytotoxicity rating (0-100), AMBEL ([7]; 250 g ai/ha) | Pre-emerge Herbicidal Activity, phytotoxicity rating (0-100), DIGSA ([13]; 250 g ai/ha)
40: phytotoxicity rating RICE ([3]; 250 g ai/ha) | Pre-emerge phytotoxicity rating (0-100), crop damage, RICE ([5]; 250 g ai/ha)
20: phytotoxicity rating CORN ([2]; 250 g ai/ha) | Pre-emerge Herbicidal Activity, phytotoxicity rating (0-100), SORHA ([8]; 250 g ai/ha) | phytotoxicity rating DIGSA ([23]; 63 g ai/ha) | phytotoxicity rating DIGSA ([23]; 250 g ai/ha)
90: Pre-emerge Herbicidal Activity, phytotoxicity rating (0-100), CHEAL ([6]; 63 g ai/ha) | Pre-emerge Herbicidal Activity, phytotoxicity rating (0-100), SETVI ([11]; 250 g ai/ha)
10: phytotoxicity rating CORN ([2]; 63 g ai/ha) | Pre-emerge Herbicidal Activity, phytotoxicity rating (0-100), ECHCG ([12]; 250 g ai/ha) | Pre-emerge Herbicidal Activity, phytotoxicity rating (0-100), CASOB ([14]; 63 g ai/ha) | phytotoxicity rating SORHA ([18]; 63 g ai/ha) | phytotoxicity rating SORHA ([18]; 250 g ai/ha) | phytotoxicity rating ECHCG ([22]; 63 g ai/ha)
25: phytotoxicity rating RICE ([3]; 63 g ai/ha) | Pre-emerge Herbicidal Activity, phytotoxicity rating (0-100), SETVI ([11]; 63 g ai/ha)
80: phytotoxicity rating AMBEL ([17]; 63 g ai/ha)
100: Pre-emerge Herbicidal Activity, phytotoxicity rating (0-100), AMARE ([1]; 63 g ai/ha) | Pre-emerge Herbicidal Activity, phytotoxicity rating (0-100), AMARE ([1]; 250 g ai/ha) | Pre-emerge Herbicidal Activity, phytotoxicity rating (0-100), CHEAL ([6]; 250 g ai/ha) | Pre-emerge Herbicidal Activity, phytotoxicity rating (0-100), ABUTH ([9]; 63 g ai/ha) | Pre-emerge Herbicidal Activity, phytotoxicity rating (0-100), ABUTH ([9]; 250 g ai/ha) | phytotoxicity rating CHEAL ([15]; 250 g ai/ha) | phytotoxicity rating AMARE ([16]; 63 g ai/ha) | phytotoxicity rating AMARE ([16]; 250 g ai/ha) | phytotoxicity rating ABUTH ([19]; 63 g ai/ha) | phytotoxicity rating ABUTH ([19]; 250 g ai/ha) | phytotoxicity rating IPOHE ([20]; 63 g ai/ha) | phytotoxicity rating IPOHE ([20]; 250 g ai/ha)
50: phytotoxicity rating SETVI ([21]; 63 g ai/ha)
95: phytotoxicity rating CHEAL ([15]; 63 g ai/ha) | phytotoxicity rating AMBEL ([17]; 250 g ai/ha)
70: Pre-emerge Herbicidal Activity, phytotoxicity rating (0-100), CASOB ([14]; 250 g ai/ha)
60: Pre-emerge Herbicidal Activity, phytotoxicity rating (0-100), IPOHE ([10]; 250 g ai/ha) | phytotoxicity rating SETVI ([21]; 250 g ai/ha) | phytotoxicity rating CASOB ([24]; 63 g ai/ha) | phytotoxicity rating CASOB ([24]; 250 g ai/ha)

COc1c(Cl)cc(F)c(-n2c(=O)cc(C(F)(F)F)n(C)c2=O)c1NC(=O)c1ccccc1F [2-39]
60: Pre-emerge Herbicidal Activity, phytotoxicity rating (0-100), SORHA ([8]; 63 g ai/ha) | phytotoxicity rating SORHA ([18]; 250 g ai/ha) | phytotoxicity rating ECHCG ([22]; 250 g ai/ha) | phytotoxicity rating CASOB ([24]; 63 g ai/ha)
90: Pre-emerge phytotoxicity rating (0-100), crop damage, RICE ([5]; 63 g ai/ha) | Pre-emerge Herbicidal Activity, phytotoxicity rating (0-100), ECHCG ([12]; 63 g ai/ha) | phytotoxicity rating CHEAL ([15]; 63 g ai/ha) | phytotoxicity rating CASOB ([24]; 250 g ai/ha)
10: phytotoxicity rating SORHA ([18]; 63 g ai/ha)
80: phytotoxicity rating SETVI ([21]; 250 g ai/ha)
100: Pre-emerge Herbicidal Activity, phytotoxicity rating (0-100), AMARE ([1]; 63 g ai/ha) | Pre-emerge Herbicidal Activity, phytotoxicity rating (0-100), AMARE ([1]; 250 g ai/ha) | Pre-emerge Herbicidal Activity, phytotoxicity rating (0-100), CHEAL ([6]; 63 g ai/ha) | Pre-emerge Herbicidal Activity, phytotoxicity rating (0-100), CHEAL ([6]; 250 g ai/ha) | Pre-emerge Herbicidal Activity, phytotoxicity rating (0-100), AMBEL ([7]; 63 g ai/ha) | Pre-emerge Herbicidal Activity, phytotoxicity rating (0-100), AMBEL ([7]; 250 g ai/ha) | Pre-emerge Herbicidal Activity, phytotoxicity rating (0-100), SORHA ([8]; 250 g ai/ha) | Pre-emerge Herbicidal Activity, phytotoxicity rating (0-100), ABUTH ([9]; 63 g ai/ha) | Pre-emerge Herbicidal Activity, phytotoxicity rating (0-100), ABUTH ([9]; 250 g ai/ha) | Pre-emerge Herbicidal Activity, phytotoxicity rating (0-100), IPOHE ([10]; 250 g ai/ha) | Pre-emerge Herbicidal Activity, phytotoxicity rating (0-100), SETVI ([11]; 63 g ai/ha) | Pre-emerge Herbicidal Activity, phytotoxicity rating (0-100), SETVI ([11]; 250 g ai/ha) | Pre-emerge Herbicidal Activity, phytotoxicity rating (0-100), ECHCG ([12]; 250 g ai/ha) | Pre-emerge Herbicidal Activity, phytotoxicity rating (0-100), DIGSA ([13]; 250 g ai/ha) | Pre-emerge Herbicidal Activity, phytotoxicity rating (0-100), CASOB ([14]; 63 g ai/ha) | Pre-emerge Herbicidal Activity, phytotoxicity rating (0-100), CASOB ([14]; 250 g ai/ha) | phytotoxicity rating ABUTH ([19]; 63 g ai/ha) | phytotoxicity rating ABUTH ([19]; 250 g ai/ha) | phytotoxicity rating IPOHE ([20]; 250 g ai/ha)
70: phytotoxicity rating CORN ([2]; 250 g ai/ha) | phytotoxicity rating RICE ([3]; 250 g ai/ha) | Pre-emerge phytotoxicity rating (0-100), crop damage, CORN ([4]; 63 g ai/ha) | phytotoxicity rating AMARE ([16]; 63 g ai/ha)
30: phytotoxicity rating RICE ([3]; 63 g ai/ha)
50: phytotoxicity rating AMBEL ([17]; 63 g ai/ha) | phytotoxicity rating DIGSA ([23]; 250 g ai/ha)
20: phytotoxicity rating CORN ([2]; 63 g ai/ha) | phytotoxicity rating SETVI ([21]; 63 g ai/ha)
95: Pre-emerge phytotoxicity rating (0-100), crop damage, CORN ([4]; 250 g ai/ha) | Pre-emerge Herbicidal Activity, phytotoxicity rating (0-100), IPOHE ([10]; 63 g ai/ha) | phytotoxicity rating CHEAL ([15]; 250 g ai/ha) | phytotoxicity rating AMARE ([16]; 250 g ai/ha) | phytotoxicity rating AMBEL ([17]; 250 g ai/ha)
99: Pre-emerge phytotoxicity rating (0-100), crop damage, RICE ([5]; 250 g ai/ha) | Pre-emerge Herbicidal Activity, phytotoxicity rating (0-100), DIGSA ([13]; 63 g ai/ha) | phytotoxicity rating IPOHE ([20]; 63 g ai/ha)
0: phytotoxicity rating ECHCG ([22]; 63 g ai/ha) | phytotoxicity rating DIGSA ([23]; 63 g ai/ha)
